Laboratory results published in patent US8124653B2, “Methods and compositions for the treatment of attention deficit hyperactivity disorder and hyperphenylalanemia” (The Board of Regents of The University of Texas System, priority 2004, dated 2012).
Where “and” joins values, the source holds several entries; their conditions need not be identical. Identical values can stand only once.

Experiments:
[1] = test system: PKU afflicted mice; assay: Levels of metabolites in mouse brain following BH4 and 6-methyl BH4 treatment, PKU mice; assay type: in vivo; conditions: for 3OMD level in brain / 5HT level in brain / DA level in brain / DOPAC level in brain / HIAA level in brain / HVA level in brain / MPHG level in brain: PKU mice, single dose IM 100 mg/kg, after 1 hr, one line per animal
Protocol: (§1) To comparatively investigate the CNS effects of BH4 and methyl BH4, we used mice both with and without PKU. A single dose of either compound was given IM, 100 mg/kg to PKU afflicted and normal mice, with control groups receiving buffer only. After 1 hr, a time sufficient to observe changes in brain chemistry, the mice were sacrificed, and brains were sent out for analysis of 3-O-methyldopa (“3OMD”), 5-hydroxytryptamine ([…]) (serotonin), dihydroxybenzoic acid (“DHBA”), dopamine (“DA”), dihydroxyphenylacetic acid (“DOPAC”), hydroxyindoleacetic acid (“HIAA”), homovanilic acid (“HVA”), and methoxyhydroxyphenylglycol (“MPHG”) levels.

[2] = test system: normal mice; assay: Levels of metabolites in mouse brain following BH4 and 6-methyl BH4 treatment, normal mice; assay type: in vivo; conditions: Non PKU mice, single dose IM 100 mg/kg, after 1 hr; one line per animal
Protocol: as §1

[3] = test system: release of neurotransmitter amines; conditions: U.S. Pat. No. 5,606,020 to Watanabe et al.; cited from earlier work
[4] = test system: PKU patients; assay: Single oral BH4 dose in PKU patients, blood Phe and tyrosine response (Example 1); assay type: in vivo, human; conditions: single oral 10 mg/kg, responder = Phe reduction 25% or greater with tyrosine increase 25% or greater within 24 hours
Protocol: PKU patients were administered a single oral dose of 10 mg/kg BH4, and blood levels of both Phe and tyrosine were monitored at 0, 4, 8, 24 hours post-dose. In this regard, it should be noted that this is half the dose administered by previous investigators.

[5] = test system: patients with PKU; assay: Oral BH4 loading in patients with PKU, blood Phe and tyrosine by tandem MS/MS (Example 2); assay type: in vivo, human
Protocol: This study included 15 males and 10 females with PKU. There were 13 subjects with “classical” PKU (based on blood Phe levels greater than 20 mg/dL) and 12 with “atypical” PKU (blood Phe 6.0-20 mg/dL). The mean age of the subjects was 16.6 years with a range from 6 months to 43 years. All subjects were on a restricted Phe diet, except four subjects with atypical PKU, who had discontinued diet treatment. […] Tetrahydrobiopterin (BH4) was obtained from Schircks Laboratories, Jena, Switzerland. The subjects were given BH4 10 mg/kg or 20 mg/kg by mouth after baseline blood Phe and tyrosine were drawn. Blood Phe and tyrosine were taken at 4, 8, and 24 hours and determined using tandem MS/MS (Neogen).

Compound	3OMD level in brain [1]	5HT level in brain [1]	DA level in brain [1]	DOPAC level in brain [1]	HIAA level in brain [1]	HVA level in brain [1]	MPHG level in brain [1]	3OMD level in brain [2]	5HT level in brain [2]	DA level in brain [2]	DOPAC level in brain [2]	HIAA level in brain [2]	HVA level in brain [2]	MPHG level in brain [2]	other results
CC1CNc2nc(N)[nH]c(=O)c2N1 (centres unmarked) [6-Me BH4, 6-methyl-tetrahydropterin]	0.39 nmol/g wet weight and 0.26 nmol/g wet weight and 0.17 nmol/g wet weight and 0.47 nmol/g wet weight and 77.7 nmol/l and 51.9 nmol/l and 34.9 nmol/l and 94.1 nmol/l	0.20 nmol/g wet weight and 0.15 nmol/g wet weight and 0.28 nmol/g wet weight and 0.24 nmol/g wet weight and 40.0 nmol/l and 30.0 nmol/l and 56.7 nmol/l and 47.6 nmol/l	10.16 nmol/g wet weight and 7.14 nmol/g wet weight and 6.46 nmol/g wet weight and 7.27 nmol/g wet weight and 2031.2 nmol/l and 1427.4 nmol/l and 1292.6 nmol/l and 1454.4 nmol/l	0.51 nmol/g wet weight and 0.40 nmol/g wet weight and 0.52 nmol/g wet weight and 0.48 nmol/g wet weight and 101.7 nmol/l and 80.6 nmol/l and 104.5 nmol/l and 95.6 nmol/l	1.70 nmol/g wet weight and 1.03 nmol/g wet weight and 1.64 nmol/g wet weight and 1.41 nmol/g wet weight and 340.4 nmol/l and 205.6 nmol/l and 328.1 nmol/l and 282.2 nmol/l	1.18 nmol/g wet weight and 0.94 nmol/g wet weight and 0.92 nmol/g wet weight and 0.91 nmol/g wet weight and 236.9 nmol/l and 187.2 nmol/l and 184.5 nmol/l and 182.1 nmol/l	0.36 nmol/g wet weight and 0.26 nmol/g wet weight and 0.32 nmol/g wet weight and 0.18 nmol/g wet weight and 71.2 nmol/l and 52.1 nmol/l and 63.2 nmol/l and 36.3 nmol/l	0.57 nmol/g wet weight and 0.29 nmol/g wet weight and 0.36 nmol/g wet weight and 0.44 nmol/g wet weight and 114.5 nmol/l and 87.7 nmol/l and 58.2 nmol/l and 71.7 nmol/l	1.07 nmol/g wet weight and 1.31 nmol/g wet weight and 1.21 nmol/g wet weight and 1.11 nmol/g wet weight and 214.3 nmol/l and 222.6 nmol/l and 261.1 nmol/l and 242.3 nmol/l	10.86 nmol/g wet weight and 10.26 nmol/g wet weight and 11.50 nmol/g wet weight and 10.56 nmol/g wet weight and 2172.4 nmol/l and 2112.1 nmol/l and 2051.2 nmol/l and 2300.5 nmol/l	0.61 nmol/g wet weight and 0.65 nmol/g wet weight and 0.66 nmol/g wet weight and 0.59 nmol/g wet weight and 121.6 nmol/l and 118.9 nmol/l and 129.6 nmol/l and 132.5 nmol/l	3.09 nmol/g wet weight and 3.56 nmol/g wet weight and 3.65 nmol/g wet weight and 3.22 nmol/g wet weight and 617.3 nmol/l and 643.9 nmol/l and 712.0 nmol/l and 730.5 nmol/l	1.26 nmol/g wet weight and 0.99 nmol/g wet weight and 1.20 nmol/g wet weight and 1.28 nmol/g wet weight and 252.9 nmol/l and 256.9 nmol/l and 197.1 nmol/l and 240.6 nmol/l	0.31 nmol/g wet weight and 0.26 nmol/g wet weight and 0.30 nmol/g wet weight and 0.29 nmol/g wet weight and 62.9 nmol/l and 58.9 nmol/l and 51.2 nmol/l and 59.7 nmol/l	Overall effect on CNS chemistry, compared with BH4 ([1]; PKU and normal mice, IM 100 mg/kg, 1 hr, summary of Tables 5 and 6): greater effect on CNS chemistry; Ability to traverse the blood brain barrier, as compared to BH4 ([1]; inferred from brain metabolite levels, PKU and normal mice): better ability to traverse the blood brain barrier
C[C@H](O)[C@H](O)[C@H]1CNc2nc(N)[nH]c(=O)c2N1 [6R-BH4]	–	–	–	–	–	–	–	–	–	–	–	–	–	–	Release and liberation of neurotransmitter amines such as dopamine, norepinephrine and serotonin [3]: enhances the release and liberation of neurotransmitter amines
C[C@H](O)[C@H](O)[C@H]1CNc2nc(N)[nH]c(=O)c2N1 [BH4, Tetrahydrobiopterin]	0.48 nmol/g wet weight and 0.16 nmol/g wet weight and 0.09 nmol/g wet weight and 0.55 nmol/g wet weight and 95.1 nmol/l and 32.9 nmol/l and 18.2 nmol/l and 110.4 nmol/l	0.16 nmol/g wet weight and 0.23 nmol/g wet weight and 0.15 nmol/g wet weight and 0.24 nmol/g wet weight and 31.5 nmol/l and 45.7 nmol/l and 30.4 nmol/l and 48.3 nmol/l	6.28 nmol/g wet weight and 9.48 nmol/g wet weight and 6.91 nmol/g wet weight and 8.08 nmol/g wet weight and 1256.0 nmol/l and 1896.3 nmol/l and 1382.2 nmol/l and 1616.2 nmol/l	0.40 nmol/g wet weight and 0.53 nmol/g wet weight and 0.51 nmol/g wet weight and 0.37 nmol/g wet weight and 80.9 nmol/l and 105.7 nmol/l and 101.0 nmol/l and 73.1 nmol/l	0.91 nmol/g wet weight and 1.68 nmol/g wet weight and 0.94 nmol/g wet weight and 1.45 nmol/g wet weight and 181.1 nmol/l and 336.9 nmol/l and 188.0 nmol/l and 290.6 nmol/l	0.80 nmol/g wet weight and 1.04 nmol/g wet weight and 0.77 nmol/g wet weight and 0.94 nmol/g wet weight and 160.6 nmol/l and 207.0 nmol/l and 153.6 nmol/l and 188.7 nmol/l	0.18 nmol/g wet weight and 0.21 nmol/g wet weight and 0.26 nmol/g wet weight and 0.16 nmol/g wet weight and 35.2 nmol/l and 42.9 nmol/l and 51.6 nmol/l and 31.6 nmol/l	0.58 nmol/g wet weight and 0.27 nmol/g wet weight and 0.60 nmol/g wet weight and 0.41 nmol/g wet weight and 115.6 nmol/l and 53.3 nmol/l and 119.7 nmol/l and 81.1 nmol/l	1.27 nmol/g wet weight and 1.21 nmol/g wet weight and 1.16 nmol/g wet weight and 1.53 nmol/g wet weight and 253.5 nmol/l and 242.3 nmol/l and 231.2 nmol/l and 305.2 nmol/l	9.06 nmol/g wet weight and 9.56 nmol/g wet weight and 9.63 nmol/g wet weight and 9.93 nmol/g wet weight and 1811.4 nmol/l and 1912.5 nmol/l and 1926.7 nmol/l and 1985.9 nmol/l	0.68 nmol/g wet weight and 0.62 nmol/g wet weight and 0.72 nmol/g wet weight and 0.79 nmol/g wet weight and 136.6 nmol/l and 124.4 nmol/l and 143.4 nmol/l and 158.6 nmol/l	3.49 nmol/g wet weight and 3.23 nmol/g wet weight and 3.19 nmol/g wet weight and 3.58 nmol/g wet weight and 697.5 nmol/l and 646.1 nmol/l and 638.7 nmol/l and 716.9 nmol/l	1.08 nmol/g wet weight and 1.09 nmol/g wet weight and 1.22 nmol/g wet weight and 1.18 nmol/g wet weight and 216.9 nmol/l and 217.7 nmol/l and 243.0 nmol/l and 236.6 nmol/l	0.36 nmol/g wet weight and 0.30 nmol/g wet weight and 0.40 nmol/g wet weight and 0.33 nmol/g wet weight and 72.5 nmol/l and 60.6 nmol/l and 80.2 nmol/l and 66.7 nmol/l	Number of Responders ([4]; Atypical PKU, blood Phe 6-20 mg/dl, 9 subjects): 9; Number of Responders ([4]; Classic PKU, blood Phe 20-50 mg/dl, 6 subjects): 0; Number of classical PKU subjects who responded to BH4 ([5]; 13 subjects with classical PKU (blood Phe greater than 20 mg/dL)): 6; Drop in blood Phe level ([5]; non-responding patients with R261Q allele challenged again with 20 mg/kg BH4): 10%; Mean decline in blood Phe ([5]; responders, after BH4 loading): 53.7%; Mean blood Phe level after BH4 loading ([5]; responders, prior to BH4 12.2 mg/dL): 6.6 mg/dL; Mean blood Phe level after BH4 loading ([5]; responders, prior to BH4 732 mmol/L, unit of the source corrected): 396 µM
